Data on three molecules can be found in patent US5602106A, “16-membered macrolide derivatives” (priority 1993, dated 1997).

Series [1] deals with B. catarrhalis W-0500. Briefly: MIC, agar plate dilution method. The format is cell-based. The conditions noted are these: Moraxella catarrhalis, W0500; 37° C., 20 hours, SDA with 5% horse blood; read-out: Antimicrobial activity (MIC). The procedure, abridged:
(§1)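 Agar dilution; inoculum ~10^6 CFU/ml, 5 μl spot; medium SDA + 5% horse blood; 37° C., 20 h. Preculture: STB broth (S. aureus, S. epidermidis); blood agar plate (B. catarrhalis, H. influenzae).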

In series [2] the test system is S. pyogenes Cook. Briefly: MIC, agar plate dilution method. The format is cell-based. The conditions noted are these: Streptococcus pyogenes. The procedure, abridged: (§2)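 Minimum inhibitory concentration by agar plate dilution on disk agar with 5% horse blood; 5 μl of roughly 10^6 CFU/ml inoculated, 37° C. for 20 h.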
Series [3] has as its system S. epidermidis ATCC14990. Briefly: MIC, agar plate dilution method. The format is cell-based. The note with it: Staphylococcus epidermidis, ATCC14990, 20 h, read-out: Antimicrobial activity (MIC), 37° C., 20 hours, SDA with 5% horse blood. Put shortly: as §1
For series [4], the system named is S. aureus MS15027. Nature of the series: MIC, agar plate dilution method. The format is cell-based. The conditions noted are these: Staphylococcus aureus, MS15027, 20 h, read-out: Antimicrobial activity (MIC), 37° C., 20 hours, SDA with 5% horse blood. The procedure, abridged: as §1
Series [5] concerns K. pneumoniae PCI602. Briefly: MIC, agar plate dilution method. The note with it: Klebsiella pneumoniae, PCI602, 20 h, 37° C., SDA with 5% horse blood, read-out: Antimicrobial activity (MIC). The class given is cell-based. The procedure, abridged:
as §1

The test system of series [6] is S. pneumoniae IP692. Briefly: MIC, agar plate dilution method. The format is cell-based. The note with it: for MIC: Streptococcus pneumoniae, IP692, 20 h, read-out: Antimicrobial activity (MIC), 37° C., 20 hours, SDA with 5% horse blood. The procedure, abridged:
as §2

Series [7] concerns S. aureus M133. Nature of the series: MIC, agar plate dilution method. The class given is cell-based. The conditions noted are these: for MIC: Staphylococcus aureus, M133, 20 h, read-out: Antimicrobial activity (MIC), 37° C., 20 hours, SDA with 5% horse blood. Put shortly:
as §1

The subject of series [8] is S. aureus MS15026. Briefly: MIC, agar plate dilution method. The note with it: Staphylococcus aureus, 37° C., 20 hours, SDA with 5% horse blood, read-out: Antimicrobial activity (MIC). The class given is cell-based. The procedure, abridged: as §1
Series [9] relates to H. influenzae Type b. Nature of the series: MIC, agar plate dilution method. The format is cell-based. The note with it: for MIC: Haemophilus influenzae, 20 h, read-out: Antimicrobial activity (MIC), 37° C., 20 hours, SDA with 5% horse blood. Put shortly:
as §1

Series [10] relates to H. influenzae 9334. Briefly: MIC, agar plate dilution method. The format is cell-based. Put shortly: as §1
Series [11] deals with E. faecalis W-73. Briefly: MIC, agar plate dilution method. The format is cell-based. The note with it: Enterococcus faecalis, W73, 20 h, read-out: Antimicrobial activity (MIC). Put shortly:
as §1

Series [12] relates to E. coli NIHJ JC-2. Briefly: MIC, agar plate dilution method. The note with it: Escherichia coli, NIHJJC2, 20 h, 37° C., SDA with 5% horse blood, read-out: Antimicrobial activity (MIC). The class given is cell-based. The procedure, abridged: as §2
For series [13], the system named is S. aureus MS15009/pMS99. Briefly: MIC, agar plate dilution method. The format is cell-based. The note with it: Staphylococcus aureus, MS15009/PMS99, 20 h, read-out: Antimicrobial activity (MIC). The procedure, abridged:
as §2

In series [14] the test system is S. pneumoniae Type 1. Nature of the series: MIC, agar plate dilution method. The class given is cell-based. The note with it: for MIC: Streptococcus pneumoniae, TYPE1, 20 h, read-out: Antimicrobial activity (MIC), 37° C., 20 hours, SDA with 5% horse blood. The procedure, abridged:
as §2

Series [15] has as its system B. catarrhalis W-0506. Nature of the series: MIC, agar plate dilution method. The format is cell-based. The note with it: Moraxella catarrhalis, W0506; 37° C., 20 hours, SDA with 5% horse blood; read-out: Antimicrobial activity (MIC). The procedure, abridged: as §1
Series [16] concerns S. aureus MS15009/pMS98. Nature of the series: MIC, agar plate dilution method. The note with it: for MIC: Staphylococcus aureus, MS15009/PMS98, 20 h, read-out: Antimicrobial activity (MIC), 37° C., 20 hours, SDA with 5% horse blood. The class given is cell-based. The procedure, abridged: as §2
Series [17] concerns S. aureus 209P JC-1. Nature of the series: MIC, agar plate dilution method. The format is cell-based. The conditions noted are these: for MIC: Staphylococcus aureus, 209P, 20 h, read-out: Antimicrobial activity (MIC), 37° C., 20 hours, SDA with 5% horse blood. Put shortly: as §1
Series [18] deals with S. aureus M126. Nature of the series: MIC, agar plate dilution method. The note with it: Staphylococcus aureus, 37° C., 20 hours, SDA with 5% horse blood, read-out: Antimicrobial activity (MIC). The format is cell-based. Put shortly: as §1
Series [19] deals with M. luteus ATCC9341. Briefly: MIC, agar plate dilution method. The class given is cell-based. The note with it: Micrococcus luteus. The procedure, abridged: as §1
For series [20] the following is noted: literature; cited from earlier work.
The test system of series [21] is Streptococcus pneumoniae DP-1 Type 1. Briefly: Infection-treating test in mice. The format is in vivo. The source says: The compounds represented by the formula (I) exert excellent in vivo effects in infection-treating tests in mice in comparison with the case of currently known 16-membered macrolide antimicrobial agents. […] Such an excellent effect is related not to the ester bonding of the tertiary hydroxyl group at the 3"-position with an acyl group but directly to its ether bonding with a methyl group. […] In this connection, it has been reported that an isovaleryl group linked to a hydroxyl group at the 4"-position cannot easily be cleaved in rat blood plasma when compared with a propionyl group [Yakugaku Zasshi, 102(8), 781 (1982)].

The subject of series [22] is test strains. Nature of the series: Antimicrobial activity in vitro, test strains overall. The format is cell-based. The procedure, abridged: as §1
In series [23] the test system is B. catarrhalis W-0400. Briefly: MIC, agar plate dilution method. The format is cell-based. The conditions noted are these: Moraxella catarrhalis, W0400, 20 h, read-out: Antimicrobial activity (MIC). The procedure, abridged:
as §2

Where [24] appears, read: 20 h, read-out: Antimicrobial activity (MIC), 37° C., 20 hours, SDA with 5% horse blood.
The mark [25] stands for this setting: Haemophilus influenzae, 9334, 20 h, read-out: Antimicrobial activity (MIC), 37° C., 20 hours, SDA with 5% horse blood.
Where [26] appears, read: 37° C., 20 hours, SDA with 5% horse blood.

The structures appear in SMILES notation. Values after ≈ are worked out from the molar mass of the structure shown. Read-outs that look alike come from different tables or passages of the source.

With `CCC(=O)O[C@@H]1CC(=O)O[C@H](C)C/C=C/C=C/[C@H](OC(C)=O)[C@H](C)C[C@H](CC=O)[C@H](O[C@@H]2O[C@H](C)[C@@H](O[C@H]3C[C@@](C)(OC(C)=O)[C@@H](OC(=O)CC)[C@H](C)O3)[C@H](N(C)C)[C@H]2O)[C@H]1OC` [MOM, miokamycin, reference compound], the MIC in [1] was 1.56 µg/mL (≈ 1.74 µM); in series [2] (setting [24]) it was 0.2 µg/mL (≈ 0.223 µM); in [3] it was 0.78 µg/mL (≈ 0.869 µM); in [4], 0.78 µg/mL (≈ 0.869 µM); in series [5], more than 100 µg/mL; in series [6] it was 0.2 µg/mL (≈ 0.223 µM). Moreover, the MIC is 0.78 µg/mL (≈ 0.869 µM) in [7]; more than 100 µg/mL in [8]; 50 µg/mL (≈ 55.7 µM) in [9]; 6.25 µg/mL (≈ 6.96 µM) in series [10] (setting [25]); 6.25 µg/mL (≈ 6.96 µM) in series [11]; more than 100 µg/mL in series [12]. Also, the MIC in series [13] was more than 100 µg/mL; in [14] it was 0.2 µg/mL (≈ 0.223 µM); in [15], 1.56 µg/mL (≈ 1.74 µM); in series [16], 0.78 µg/mL (≈ 0.869 µM); in series [17], 0.39 µg/mL (≈ 0.434 µM); in series [18], more than 100 µg/mL. Moreover, the MIC in [19] (ATCC9341, 20 h, read-out: Antimicrobial activity (MIC), 37° C., 20 hours, SDA with 5% horse blood) was determined as 0.1 µg/mL (≈ 0.111 µM). Besides, the “metabolism and loss of antimicrobial activity after oral administration” value in series [20] is “an acyl group of a neutral sugar moiety of the administered drug is cleaved with time and antimicrobial activities of the drug itself therefore is reduced gradually”.
For the molecule `CCC(=O)O[C@@H]1CC(=O)O[C@H](C)C/C=C/C=C/[C@H](OC(C)=O)[C@H](C)C[C@H](CC=O)[C@H](O[C@@H]2O[C@H](C)[C@@H](O[C@H]3C[C@@](C)(OC)[C@@H](OC(=O)CC)[C@H](C)O3)[C@H](N(C)C)[C@H]2O)[C@H]1OC` [(5), 9-O-acetyl-3"-O-methylmidecamycin A1], the “amount giving a coordinate infection-treating effect relative to miokamycin” value in series [21] (fraction of miokamycin amount) was 1/4. Further, the “amount giving a coordinate infection-treating effect relative to rokitamycin” value in series [21] (fraction of rokitamycin amount) is 1/8. Moreover, the “antimicrobial activities compared with starting materials (1), (2) and (33)” value in series [22] (9-O-acylated vs free 9-hydroxyl) was “strong antimicrobial activities by themselves though slightly lower than those of their starting materials”. In addition, in series [22] (vs miokamycin (MOM)), the “antimicrobial activities in vitro compared with miokamycin” value was “comparable to or higher”.
As for `CCCC(=O)O[C@H]1[C@H](C)O[C@@H](O[C@H]2[C@H](N(C)C)[C@@H](O)[C@H](O[C@H]3[C@@H](CC=O)C[C@@H](C)[C@@H](O)/C=C/C=C/C[C@@H](C)OC(=O)C[C@@H](O)[C@@H]3OC)O[C@@H]2C)C[C@@]1(C)OC(=O)CC` [RKM, rokitamycin, reference compound], the MIC in [2] (setting [24]) was 0.2 µg/mL (≈ 0.242 µM); in series [2] (37° C., 20 hours, SDA with 5% horse blood, read-out: Antimicrobial activity (MIC)), 0.05 µg/mL (≈ 0.0604 µM); in series [3], 0.78 µg/mL (≈ 0.942 µM); in series [4] it was 0.78 µg/mL (≈ 0.942 µM); in [5] it was more than 100 µg/mL; in series [6] it was 0.1 µg/mL (≈ 0.121 µM). Further, the MIC is 0.39 µg/mL (≈ 0.471 µM) in series [7]; more than 100 µg/mL in series [8]; 6.25 µg/mL (≈ 7.55 µM) in [9]; 6.25 µg/mL (≈ 7.55 µM) in [10] (setting [25]); 1.56 µg/mL (≈ 1.88 µM) in series [10] (Haemophilus influenzae, 9334, 37° C., 20 hours, SDA with 5% horse blood, read-out: Antimicrobial activity (MIC)); 1.56 µg/mL (≈ 1.88 µM) in series [11] (setting [26]). The MIC is 0.39 µg/mL (≈ 0.471 µM) in series [11]; more than 100 µg/mL in [12]; more than 100 µg/mL in series [13]; 0.1 µg/mL (≈ 0.121 µM) in [14]; 0.39 µg/mL (≈ 0.471 µM) in series [16]; 0.1 µg/mL (≈ 0.121 µM) in [17]. Moreover, the MIC in series [18] is more than 100 µg/mL; in [19] (ATCC9341, 37° C., 20 hours, SDA with 5% horse blood, read-out: Antimicrobial activity (MIC)) it was 0.05 µg/mL (≈ 0.0604 µM); in series [23], 0.39 µg/mL (≈ 0.471 µM). In addition, the “Antimicrobial activity (MIC)” value came out at 0.20 µg/mL in series [6] (setting [26]); 0.78 µg/mL in series [7] (setting [26]); 12.5 µg/mL in [9] (setting [26]); 0.20 µg/mL in series [14] (setting [26]); 0.78 µg/mL in series [16] (setting [26]); 0.20 µg/mL in series [17] (setting [26]). Besides, the “metabolism and loss of antimicrobial activity after oral administration” value in series [20] is “an acyl group of a neutral sugar moiety of the administered drug is cleaved with time and antimicrobial activities of the drug itself therefore is reduced gradually”.
